Source: paper PMC5365645, “Preclinical Pharmacokinetics and Pharmacodynamic Target of SCY-078, a First-in-Class Orally Active Antifungal Glucan Synthesis Inhibitor, in Murine Models of Disseminated Candidiasis” (Antimicrobial Agents and Chemotherapy, 2017)
Converted amounts (≈) assume the structure as drawn.

Assays:
C. albicans CLY724 = assay: Single delayed-dose treatment model of disseminated candidiasis; format: in vivo, mice; conditions: single dose 16 h after infection, tissue burden 96 h after treatment, regression analysis
[1] = In vitro metabolic stability in hepatic microsomes; format: in vitro ADME, dog; conditions: for remaining at 0.5 h, 1 µM: read-out: % remaining after 30 min
Protocol: (§1) The metabolic stability of SCY-078 was assessed after incubation with mouse, rat, dog, and human liver microsomes (Table 2) ([10]). […] The half-lives in rodent, dog, and human liver microsomes were ≥125, ≥29, and ≥42 min, respectively.
(§2) The metabolic stability of SCY-078 was evaluated with male and female mouse, male rat, male and female dog, and mixed-gender human liver microsomes (XenoTech, Lenexa, KS). SCY-078 (1 μM) was incubated with pooled liver microsomes (0.5 mg protein/ml) for 0, 5, 10, 20, and 30 min at 37°C in the presence of NADPH. Aliquots were taken at each sampling time point and extracted with 5 volumes of ice-cold acetonitrile containing the internal standard (d9-SCY-078, 125 ng/ml). Supernatants from the incubation mixtures were analyzed for the parent compound by LC-MS/MS according to the conditions described below. The metabolic competency of microsomal preparations was established using the control compounds 7-ethoxycoumarin, propranolol, and verapamil. The in vitro intrinsic clearance (CLint), the CLint scaled to the in vivo intrinsic clearance (CL′int), and the half-life were determined for SCY-078 incubated with microsomes from each species.

[2] = In vitro metabolic stability in hepatic microsomes, rodent summary; format: in vitro ADME, mouse and rat
Protocol: as §1, §2

pKa values = format: physicochemical
in vivo [3] = assay: in vivo; set-up: species or system Wistar Han rats; conditions: Wistar Han, rat; for half-life: t1/2
Protocol: The pharmacokinetics and bioavailability of SCY-078 were evaluated in uninfected mouse, rat, and dog after p.o. and i.v. administration. The in vivo phases of the PK studies were performed at either […] (Waltham, MA) or MPI Research (Mattawan, MI) after an Institutional Animal Care and Use Committee (IACUC) review. […] and MPI Research are Association for Assessment and Accreditation of Laboratory Animal Care International (AAALAC)-approved facilities. […] The peak concentration (Cmax), the time to maximum concentration (Tmax), the half-life, and the AUC were determined from composite mean plasma concentration-time data for rodents and individual plasma concentration-time data for dogs. All doses and plasma concentrations of SCY-078 are presented as free base. Male and female Wistar Han rats (n = 3/sex/group/time point) weighing 0.329 to 0.398 kg (males) or 0.187 to 0.244 kg (females) received a single 5-mg/kg dose of SCY-078 as an i.v. injection in the lateral tail administered over 5 min or an oral dose of 20 mg/kg as described above. Blood specimens were collected from four animals/time point/group using a sparse sampling strategy via the sublingual vein at time intervals to 72 h postdosing and processed as described above.

in vivo [4] = assay: in vivo; set-up: species or system mice, rats, and dogs
Protocol: The pharmacokinetics and bioavailability of SCY-078 were evaluated in uninfected mouse, rat, and dog after p.o. and i.v. administration. The in vivo phases of the PK studies were performed at either […] (Waltham, MA) or MPI Research (Mattawan, MI) after an Institutional Animal Care and Use Committee (IACUC) review. […] and MPI Research are Association for Assessment and Accreditation of Laboratory Animal Care International (AAALAC)-approved facilities. […] The peak concentration (Cmax), the time to maximum concentration (Tmax), the half-life, and the AUC were determined from composite mean plasma concentration-time data for rodents and individual plasma concentration-time data for dogs. All doses and plasma concentrations of SCY-078 are presented as free base. […] Male and female Wistar Han rats (n = 3/sex/group/time point) weighing 0.329 to 0.398 kg (males) or 0.187 to 0.244 kg (females) received a single 5-mg/kg dose of SCY-078 as an i.v. injection in the lateral tail administered over 5 min or an oral dose of 20 mg/kg as described above. Blood specimens were collected from four animals/time point/group using a sparse sampling strategy via the sublingual vein at time intervals to 72 h postdosing and processed as described above. Treatment naive male and female beagle dogs (n = 3/sex/group/time point) weighing 8 to 12 kg (males) or 6 to 10 kg (females) were given a single 5-mg/kg dose of SCY-078 as an i.v. injection over 5 min or an oral dose of 20 mg/kg as described above. Blood specimens were collected from the jugular vein at various time intervals to 72 h postdosing and processed as described above.

[5] = Volume of distribution after i.v. administration; conditions: in vivo, iv, Rhesus monkey, no source reference printed, read-out: Vd ss
From the text: TABLE 7 Volume of distribution for SCY-078 and echinocandins after i.v. administration | column: Vd ss (liters/kg)^a / SCY-078

[6] = test system: C. glabrata isolate CG 5592; set-up: method as in PMID 25512406; conditions: stasis ref 6; cited from earlier work
[7] = test system: C. parapsilosis isolate CP 20519.069; set-up: method as in PMID 25512406; conditions: cited from earlier work
C. albicans MY1055 = assay: Single delayed-dose treatment model of disseminated candidiasis; conditions: single dose 16 h after infection, tissue burden 96 h after treatment, regression analysis
Protocol: Next, a single-dose treatment with SCY-078 was administered. The target endpoint for efficacy in this model was defined as a static effect on the tissue burden measured 96 h after treatment.
For the single delayed-dose treatment model, a single dose of SCY-078 was administered 16 h after infection. The target endpoint for efficacy in this model was a static effect on the tissue burden measured at 96 h posttreatment.

C. albicans = assay: Fractionated delayed-dose treatment model of disseminated candidiasis
Protocol: The fractionated delayed treatment model was used to compare the efficacy of SCY-078 when administered as divided doses of either two half doses or four quarter doses, relative to the outcome of a single dose. The total doses were 12.5, 25, and 50 mg/kg delivered by bolus intraperitoneal injection. Divided doses were administered at either 0 and 48 h or at 0, 24, 48, and 72 h relative to the single dose. […] Caspofungin and fluconazole were not evaluated in this model.
In the fractionated delayed-dose treatment model, SCY-078 was administered as divided doses of either two half doses or four quarter doses relative to the single dose. The total doses were 12.5, 25, and 50 mg/kg administered as a suspension in a “fit-for-purpose” formulation. Divided doses were administered at either 0 or 48 h or at 0, 24, 48, and 72 h relative to the single dose for the half and quarter doses, respectively. Caspofungin and fluconazole were not evaluated in this model.

[8] = both sexes, pooled liver microsomes, dog liver microsomes, summary of male and female
[9] = pooled liver microsomes, female dog liver microsomes
[10] = pooled liver microsomes, male dog liver microsomes
[11] = female (mouse), both (rat, dog), CD-1 (mouse), Wistar Han (rat), beagle (dog), dog, po

For `CC(C)[C@@H](C)[C@@]1(C)CC[C@]2(C)[C@H]3CC[C@@H]4[C@@]5(COC[C@@]4(C)[C@@H](OC[C@](C)(N)C(C)(C)C)[C@H](n4ncnc4-c4ccncc4)C5)C3=CC[C@@]2(C)[C@@H]1C(=O)O` [SCY-078, (1S,4aR,6aS,7R,8R,10aR,10bR,12aR,14R,15R)-15-[[(2R)-2-amino-2,3,3-trimethylbutyl]oxy]-8-[(1R)-1,2-dimethylpropyl]-14-[5-(4-pyridinyl)-1H-1,2,4-triazol-1-yl]-1,6,6a,7,8,9,10,10a,10b,11,12,12a-dodecahydro-1,6a,8,10a-tetramethyl-4H-1,4a-propano-2H-phenanthro[1,2-c]pyran-7-carboxylic acid], the “Dose achieving stasis endpoint” value (C. albicans CLY724) was 9.93 mg/kg, the half-life at 1 μM [1, 8] was at least 29 min and the microsomal CLint at 1 μM [1, 8] was at most 48 µL/min/mg. It also gave a CLint scaled at 1 μM ([1]; both sexes, pooled liver microsomes, dog liver microsomes, summary of male and female, read-out: CL′int (CLint scaled to in vivo intrinsic clearance)) of at most 4.14 mL/h/kg, a remaining at 0.5 h, 1 µM ([1]; female dog liver microsomes) of 84% and a remaining at 0.5 h, 1 µM ([1]; male dog liver microsomes) of 49%. The half-life at 1 μM [1, 9] was 92 min, the microsomal CLint at 1 μM [1, 9] was 15 µL/min/mg and the half-life at 1 μM [1, 10] was 29 min. For the same compound, the microsomal CLint at 1 μM [1, 10] was 48 µL/min/mg, the half-life at 1 μM ([2]; both (mouse), male (rat), pooled liver microsomes, rodent liver microsomes) was at least 125 min and the CLint scaled at 1 μM ([2]; both (mouse), male (rat), pooled liver microsomes, rodent liver microsomes, read-out: CL′int (CLint scaled to in vivo intrinsic clearance)) was under 2.4 mL/h/kg. For the same compound, the microsomal CLint at 1 μM ([2]; both (mouse), male (rat), pooled liver microsomes, rodents (mouse and rat) liver microsomes) was at most 11 µL/min/mg, the remaining at 0.5 h, 1 µM ([2]; both sexes, mouse, rat, liver microsomes, rodent microsomes, read-out: % remaining after 30 min) was about 85% and the pKa (pKa values; carboxylic acid) was 5.5. It also gave a pKa (pKa values; primary amine) of 9, a pKa (pKa values; pyridine) of 2.4 and an AUC(0-inf) (in vivo [3]; both sexes, iv, 5 mg/kg) of 11700 ng·h/mL. For the same compound, the AUC(0-t) (in vivo [3]; both sexes, iv, 5 mg/kg) was 10300 ng·h/mL, the Vd (in vivo [3]; both sexes, iv, 5 mg/kg) was 4.7 L/kg and the clearance (in vivo [3]; both sexes, iv, 5 mg/kg) was 7.33 mL/min/kg. It also gave a half-life (in vivo [3]; both sexes, iv, 5 mg/kg) of about 522 min, an AUC(0-inf) (in vivo [3]; both sexes, po, 20 mg/kg) of 20800 ng·h/mL and an AUC(0-t) (in vivo [3]; both sexes, po, 20 mg/kg) of 16400 ng·h/mL. It also gave a Cmax (in vivo [3]; both sexes, po, 20 mg/kg) of 1010 ng/mL, a Tmax (in vivo [3]; both sexes, po, 20 mg/kg) of 8 h and a bioavailability (in vivo [3]; both sexes, po, 20 mg/kg, Bioavailability) of about 45%. For the same compound, the half-life (in vivo [3]; both sexes, po, 20 mg/kg) was about 546 min, the “Dose normalized AUC0–∞ to a 1-mg/kg dose” value (in vivo [3]; both, iv) was about 2.4 µg·h/mL and the t1/2 (in vivo [3]; both, iv, 5 mg/kg) was 8.7 h. The Cmax (in vivo [4]; CD-1 (mouse), Wistar Han (rat), beagle (dog), dog, po) was about 1000 ng/mL, the half-life (in vivo [4]; both sexes, CD-1, Wistar Han, mouse, rat, po) was 468 to 546 min and the half-life (in vivo [4]; female (mouse), both (rat), CD-1 (mouse), Wistar Han (rat), iv) was 330 to 522 min. The Vd (in vivo [4]; female (mouse), both (rat, dog), CD-1 (mouse), Wistar Han (rat), beagle (dog), dog, iv) was 4.7 to 5.3 L/kg, the “Dose normalized AUC0–12 across species” value (in vivo [4]; [11]) was 0.5-0.8 μg/ml·h/mg/kg dose and the Tmax (in vivo [4]; [11]) was 4 to 6 h. The Vd [5] was 4.4 L/kg, the “Total drug AUC0–24 target” value [6] was about 18.8 µM·h and the MIC [7] was 0.25 µg/mL (≈ 0.342 µM). For the same compound, the “Dose achieving stasis endpoint” value (C. albicans MY1055) was 10.28 mg/kg, the ED99 (C. albicans; 2 doses) was 9.83 mg/kg and the ED99 (C. albicans; 4 doses) was 6.93 mg/kg. The “90% effective dose (ED90)” value (C. albicans; divided, half doses (0 and 48 h)) was 4.40 mg/kg, the “90% effective dose (ED90)” value (C. albicans; divided, quarter doses (0, 24, 48, 72 h)) was 4.25 mg/kg and the “90% effective dose (ED90)” value (C. albicans; single dose) was 5.02 mg/kg. The ED99 (C. albicans; single dose) was 13.43 mg/kg.
